Source: patent US7122328B2, “Gene involved in mineral deposition and uses thereof” (The Board of Trustees of the Leland Stanford Junior …, priority 2000, dated 2006)

System: COS cells
Test: Intracellular/extracellular pyrophosphate levels in transfected COS cells
Assay type: cell-based
Conditions: overexpression in tissue culture cells
Description: Several protocols have previously been developed for measuring inorganic pyrophosphate in biological samples and any number of these are used in the in vitro assay. Some measure pyrophosphate hydrolysis to orthophosphate by calorimetry (McCarty et al., J. Lab. Clin. Med., 78:216–29 (1971)), while others use labeled substrates that couple with pyrophosphate in enzymatic reactions to determine pyrophosphate levels radiometrically (Cheung and Suhadolnik, Anal. Biochem., 83:61–3 (1977); Caswell and Russell, Biochim. Biophys. Acta, 847:40–7 (1985)). In another type of protocols, inorganic pyrophosphate is subjected to a series of coupled enzymatic phosphorylation and reduction to yield NADPH which can be quantified flourimetrically (Lust and Seegmiller, Clin. Chim. Acta, 66:241–9 (1976)). Although each of these can be used in the assay, the latter protocol is used with described modifications as follows.
COS cells grown in DMEM supplemented with 10% fetal bovine serum, 2 mM GlutaMax (Gibco), 0.1 mM non-essential amino acids, 100 units/ml Penicillin G, and 100 μg/ml Streptomycin are harvested and ˜1–2×10^6 cells are plated on a 100 mm tissue culture dish and incubated overnight at 37° C., 5% CO2. […]

Substance: wild type ANK gene product: wild type ANK protein overexpressed in tissue culture cells; multiple-pass integral membrane protein of 492 amino acids
- extracellular pyrophosphate levels: increase
- intracellular pyrophosphate levels: dramatic reduction
